“Also recorded” adds a separate entry of the source. Where a SMILES comes first, the peptide text is derived from it. Bridges are numbered along the chain shown (N, C = ends). [ ]: non-standard residue; d: D form. S5 = C=CCCC[C@](C)(N)C(=O)O
Key:
Jurkat cells = test: Live confocal microscopy of cellular uptake and localization; type: cell-based; settings: FITC-SAHB
Method: In addition to FACS-based analysis, live confocal microscopy was used to visualize cellular uptake and intracellular localization of MCL-1 targeting SAHBs. For live confocal microscopy, Jurkat cells were incubated with FITC-SAHB and live cell organelle markers (e.g., dextran to label pinosomes, Mitotracker to label mitochondria). At defined time points (e.g., 4, 8, 12, and 24 hours), cells were washed twice with PBS, resuspended in PBS, wet mounted and imaged by confocal microscopy. […] Cell permeability and intracellular targeting can also be optimized through site-directed mutagenesis; for example, converting negatively charged residues to neutral or positively charged residues (e.g. SEQ ID NO: 39) can enhance cellular uptake as was previously reported (Bernal et al JACS, 2007).

[1] = test system: MCL-1ΔNΔC, BCL-2ΔC, BCL-XLΔC, BCL-wΔC and BFL-1/A1ΔC; test: FPA selectivity across panel of anti-apoptotic proteins; type: binding; settings: FPA against anti-apoptotic panel
Method: (§1) Binding assays were performed as previously described (Pitter et al., Methods Enzymol 446, 387 (2008). Briefly, FITC-SAHB (50 nM) was added to serial dilutions of FPLC-purified recombinant protein in binding buffer (50 mM Tris, 100 mM NaCl, pH 8.0). For competition assays, serial dilutions of acetylated MCL-1 SAHBs were mixed with FITC-BAK SAHB (25 nM), followed by addition of MCL-1ΔNΔC (100 nM) diluted in binding buffer (50 mM Tris, 100 mM NaCl, pH 8.0). Multiwell plates were incubated in the dark at room temperature until equilibrium was reached and fluorescence polarization (mP units) was measured by microplate reader (SpectraMax, Molecular Devices). For direct binding experiments, dissociation constants (KD) were calculated by nonlinear regression analysis of dose-response curves using Prism software (Graphpad). For competition experiments, Ki values were determined by nonlinear regression analysis of dose-response curves using a one-site competition model.
(§2) Compounds that bound MCL-1 with high affinity were analyzed for MCL-1 selectivity by measuring SAHB affinities for recombinant BCL-XLΔC, BCL-WΔC and BFL-1/A1ΔC (FIG. 8B). Recombinant carboxy-terminal deleted anti-apoptotic proteins were expressed using the pGEX-4T vector, and purified as described for rMCL-1. The purified proteins were incubated with FITC-SAHBs, and binding affinities were analyzed by fluorescence polarization assay as described above. […] Optionally, design and optimization of tailored SAHB compounds for anti-apoptotic targeting also employed computational modeling.
After the experiments set forth above, further members of the library of stabilized alpha-helices of BCL-2 domains (SAHBs) modeled after the BH3 domains of BCL-2 family proteins were generated in order to identify potent and selective inhibitors of MCL-1. The native alpha-helical structure of BH3 domains was reinforced by incorporating non-natural amino acids containing olefin tethers at the (i, i+4) positions of the non-interacting face, followed by ruthenium catalyzed olefin metathesis to yield a panel of stapled BH3 domains (FIG. 7). Fluorescence polarization assays (FPA) were performed to measure the binding affinity of fluorescently labeled SAHBs for recombinant human MCL-1ΔNΔC (amino acids 172-320), a deletion construct that contains the BH3-binding pocket and affords enhanced expression, purity, and stability. […] To identify MCL-1-selective SAHBs, we first screened for recombinant BCL-XLΔC binding, which eliminated PUMA, BID, BIM, BOK, BAX, and BAK SAHBs and then for recombinant BFL1/A1ΔC binding, which eliminated NOXA SAHB.

recombinant BCL-XLΔC = recombinant BCL-XLΔC (Homo sapiens, UniProt Q07817); test: Fluorescence polarization direct binding of FITC-SAHBs to BCL-XLΔC; settings: FPA
Chain of recombinant BCL-XLΔC (Q07817 1-209, stated change not applied): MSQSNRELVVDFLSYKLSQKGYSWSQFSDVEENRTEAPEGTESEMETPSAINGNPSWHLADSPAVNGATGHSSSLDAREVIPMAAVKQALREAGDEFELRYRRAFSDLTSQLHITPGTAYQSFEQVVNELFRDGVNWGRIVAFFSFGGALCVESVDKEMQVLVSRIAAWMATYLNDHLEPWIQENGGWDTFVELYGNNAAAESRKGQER
Method: as §1
as §2, with “Recombinant” for “Compounds that bound MCL-1 with high affinity were analyzed for MCL-1 selectivity by measuring SAHB affinities for recombinant BCL-XLΔC, BCL-WΔC and BFL-1/A1ΔC (FIG. 8B). Recombinant”

[2] = molecular target: T1, MCL-1/BAK interaction in U937 AML cells (Homo sapiens, UniProt Q07820); test: MCL-1 immunoprecipitation / BAK western in U937 cells; type: cell-based; settings: MCL-1 co-immunoprecipitation
T1 construct: MCL-1 over-expressing cancer cells, such as OPM2 multiple myeloma and U937 AML cells; endogenous in cells; host or cells: U937 AML cells
T1 sequence (Q07820 whole entry): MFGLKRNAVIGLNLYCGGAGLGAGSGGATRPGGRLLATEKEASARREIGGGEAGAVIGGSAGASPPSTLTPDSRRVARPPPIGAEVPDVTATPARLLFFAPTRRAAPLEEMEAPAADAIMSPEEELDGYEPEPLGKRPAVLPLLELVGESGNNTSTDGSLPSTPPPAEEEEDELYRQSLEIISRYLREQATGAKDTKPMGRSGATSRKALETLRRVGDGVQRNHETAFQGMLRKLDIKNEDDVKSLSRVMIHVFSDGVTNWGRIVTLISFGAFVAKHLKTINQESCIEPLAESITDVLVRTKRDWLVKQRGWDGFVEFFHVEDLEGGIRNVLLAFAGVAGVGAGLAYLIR
Method: After cellular lysis in 50 mM Tris (pH 7.4), 150 mM NaCl, 1 mM EDTA, 1% CHAPS and complete protease inhibitor pellet, cellular debris was pelleted at 14,000 g for 10 minutes at 4° C. The supernatant was incubated with pre-equilibrated protein A/G sepharose beads. The pre-cleared supernatant was treated with anti-MCL-1 antibody for 1.5 hours at 4° C. with rotation, followed by exposure to the protein A/G sepharose beads for 1 hour. The beads were pelleted and washed with lysis buffer for 10 minutes at 4° C. The washed beads were pelleted, heated to 90° C. for 10 minutes in SDS loading buffer, analyzed by SDS/PAGE, and immunoblotted for the known MCL-1 interactor, BAK. […] The SAHB-induced dissociation of MCL-1/BAK correlated with sensitization of U937 cells to apoptosis induction by a pro-apoptotic stimulus (see below).

recombinant BCL-wΔC = test: Fluorescence polarization direct binding of FITC-SAHBs to BCL-wΔC; settings: FPA
Method: as §1
(§3) Compounds that bound MCL-1 with high affinity were analyzed for MCL-1 selectivity by measuring SAHB affinities for recombinant BCL-XLΔC, BCL-WΔC and BFL-1/A1ΔC (FIG. 8B). […] The purified proteins were incubated with FITC-SAHBs, and binding affinities were analyzed by fluorescence polarization assay as described above. […]

U937 AML cells = test: Cell viability by MTT assay, U937; type: cell-based; settings: combined with low-dose BIM SAHB
Description: A cell-based screen was used to evaluate the pro-apoptotic activity of MCL-1-targeting SAHBs in MCL-1-dependent hematologic cancer cell lines, including U937 (histiocytic lymphoma), Pfeiffer (diffuse large B-cell lymphoma), OCI-AML3 (acute myeloid leukemia), K562 (chronic myelogenous leukemia) and OPM-2 (multiple myeloma) cells.

recombinant BFL-1/A1ΔC = test: Fluorescence polarization direct binding of FITC-SAHBs to BFL-1/A1ΔC; settings: FPA
Method: as §1, §3

CC(C)C[C@H](NC(=O)[C@H](CCCCN)NC(=O)[C@H](CCC(N)=O)NC(=O)[C@H](CCCNC(=N)N)NC(=O)[C@H](Cc1ccccc1)NC(=O)[C@H](CC(N)=O)NC(=O)[C@H](CC(C)C)NC(=O)[C@]1(C)CCCC=CCCC[C@](C)(NC(=O)[C@H](CCCNC(=N)N)NC(=O)[C@H](CC(C)C)NC(=O)[C@H](CCC(N)=O)NC(=O)[C@@H](NC(=O)[C@H](C)NC(=O)[C@H](CO)NC(=O)[C@H](CCC(=O)O)NC(=O)[C@@H](NC(=O)[C@H](CCC(=O)O)NC(=O)[C@@H](N)CC(C)C)C(C)C)[C@@H](C)O)C(=O)N[C@@H](Cc2ccccc2)C(=O)NCC(=O)N[C@@H](CC(=O)O)C(=O)N1)C(N)=O [NOXA SAHB] (H-LEVESATQLR[S5]FGD[S5]LNFRQKL-NH2; staple 11-15; C-terminus assumed)
cellular uptake and intracellular localization (Jurkat cells): striking fluorescence of pinosomes at early time points and subsequent colocalization with Mitotracker
binding selectivity among anti-apoptotic proteins [1]: striking selectivity for MCL-1ΔNΔC; also recorded: selective for MCL-1
BCL-XL binding (recombinant BCL-XLΔC): did not engage
dissociation of MCL-1/BAK interaction in U937 cells [2]: disrupts the MCL-1/BAK interaction
BCL-w binding (recombinant BCL-wΔC): did not engage
sensitization of U937 cells to BIM SAHB (U937 AML cells): dose-responsively sensitizes chemoresistant U937 AML cells to low-dose, pro-apoptotic BIM SAHB
BFL-1/A1 binding (recombinant BFL-1/A1ΔC): eliminated; also recorded: did not engage

— patent US9079970B2, “Methods and compositions for specific modulation of MCL-1” (Dana Farber Cancer Institute, Inc., priority 2008, dated 2015)
